Test results taken from PubChem BioAssay AID1919000 (Molecular Pharmacology Branch, DTP, NCI, 2023).
Values joined by “and” are separate entries in the source; they are usually repeats but may differ in a detail not shown here. Equal values may be shown once.

Tested on: 653999-131-R-J2-PDC complex spheroids, growth % test/control
Experiment: Anticancer human tumor 653999-131-R-J2-PDC patient-derived lung adenocarcinoma cell line growth inhibition [AhR]
Settings: for viability, T/C: stronger effect = lower value
In short: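 Complex tumor spheroids co-cultured with HUVEC and human MSC stroma; AhR antagonists tested in combination with standard-of-care and investigational agents. Top concentration at or near clinical Cmax (else 10 microM), half-log dilutions; growth expressed as percent test/control.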

[1] = curve of first compound, second compound 0.1 µM
[2] = curve of first compound, second compound 0.316 µM
[3] = curve of first compound, second compound 1 µM
[4] = curve of first compound, second compound 3.16 µM
[5] = curve of first compound, second compound 10 µM
[6] = second compound 0.1 µM, first compound 0.00316 µM
[7] = second compound 0.1 µM, first compound 0.01 µM
[8] = second compound 0.1 µM, first compound 0.0316 µM
[9] = second compound 0.1 µM, first compound 0.1 µM
[10] = second compound 0.316 µM, first compound 0.00316 µM
[11] = second compound 0.316 µM, first compound 0.01 µM
[12] = second compound 0.316 µM, first compound 0.0316 µM
[13] = second compound 0.316 µM, first compound 0.1 µM
[14] = second compound 1 µM, first compound 0.00316 µM
[15] = second compound 1 µM, first compound 0.01 µM
[16] = second compound 1 µM, first compound 0.0316 µM
[17] = second compound 1 µM, first compound 0.1 µM
[18] = second compound 3.16 µM, first compound 0.00316 µM
[19] = second compound 3.16 µM, first compound 0.01 µM
[20] = second compound 3.16 µM, first compound 0.0316 µM
[21] = second compound 3.16 µM, first compound 0.1 µM
[22] = second compound 10 µM, first compound 0.00316 µM
[23] = second compound 10 µM, first compound 0.01 µM
[24] = second compound 10 µM, first compound 0.0316 µM
[25] = second compound 10 µM, first compound 0.1 µM
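Note: spheroids exposed to agents for seven days.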
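Throughout, for viability, T/C: 100% = DMSO vehicle control viability.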

## CCc1c2c(nc3ccc(O)cc13)-c1cc3c(c(=O)n1C2)COC(=O)[C@]3(O)CC + Cc1cncc(-c2nc(NCCc3c[nH]c4ccccc34)c3ncn(C(C)C)c3n2)c1
[1]
  IC50: 4.27 nM
[2]
  IC50: 3.22 nM
[3]
  IC50: 4.17 nM
[4]
  IC50: 5.21 nM
[5]
  IC50: < 0.949 nM
Second compound 0.1 µM, first compound 0.000949 µM
  viability, T/C: 62.3%
Second compound 0.1 µM, first compound 0.003 µM
  viability, T/C: 56.1%
Second compound 0.1 µM, first compound 0.00949 µM
  viability, T/C: 38.4%
Second compound 0.1 µM, first compound 0.03 µM
  viability, T/C: 27.4%
Second compound 0.1 µM, first compound 0.0949 µM
  viability, T/C: 19.4%
Second compound 0.1 µM, first compound 0.3 µM
  viability, T/C: 13.7%
Second compound 0.316 µM, first compound 0.000949 µM
  viability, T/C: 59.1%
Second compound 0.316 µM, first compound 0.003 µM
  viability, T/C: 50.6%
Second compound 0.316 µM, first compound 0.00949 µM
  viability, T/C: 39.1%
Second compound 0.316 µM, first compound 0.03 µM
  viability, T/C: 26.2%
Second compound 0.316 µM, first compound 0.0949 µM
  viability, T/C: 18.3%
Second compound 0.316 µM, first compound 0.3 µM
  viability, T/C: 13%
Second compound 1 µM, first compound 0.000949 µM
  viability, T/C: 67.2%
Second compound 1 µM, first compound 0.003 µM
  viability, T/C: 55%
Second compound 1 µM, first compound 0.00949 µM
  viability, T/C: 38.5%
Second compound 1 µM, first compound 0.03 µM
  viability, T/C: 28.1%
Second compound 1 µM, first compound 0.0949 µM
  viability, T/C: 19.4%
Second compound 1 µM, first compound 0.3 µM
  viability, T/C: 13.6%
Second compound 3.16 µM, first compound 0.000949 µM
  viability, T/C: 58%
Second compound 3.16 µM, first compound 0.003 µM
  viability, T/C: 58.1%
Second compound 3.16 µM, first compound 0.00949 µM
  viability, T/C: 42.6%
Second compound 3.16 µM, first compound 0.03 µM
  viability, T/C: 28%
Second compound 3.16 µM, first compound 0.0949 µM
  viability, T/C: 18.8%
Second compound 3.16 µM, first compound 0.3 µM
  viability, T/C: 12.3%
Second compound 10 µM, first compound 0.000949 µM
  viability, T/C: 36.4%
Second compound 10 µM, first compound 0.003 µM
  viability, T/C: 32.3%
Second compound 10 µM, first compound 0.00949 µM
  viability, T/C: 25.5%
Second compound 10 µM, first compound 0.03 µM
  viability, T/C: 16%
Second compound 10 µM, first compound 0.0949 µM
  viability, T/C: 11.2%
Second compound 10 µM, first compound 0.3 µM
  viability, T/C: 8.25%

## Cn1ncnc1C1c2n[nH]c(=O)c3cc(F)cc(c23)NC1c1ccc(F)cc1 (configuration not stated) + Cc1cncc(-c2nc(NCCc3c[nH]c4ccccc34)c3ncn(C(C)C)c3n2)c1
[1]
  IC50: > 100 nM
[2]
  IC50: > 100 nM
[3]
  IC50: > 100 nM
[4]
  IC50: > 100 nM
[5]
  IC50: > 100 nM
Second compound 0.1 µM, first compound 0.000316 µM
  viability, T/C: 96%
Second compound 0.1 µM, first compound 0.001 µM
  viability, T/C: 96.2%
[6]
  viability, T/C: 97.4%
[7]
  viability, T/C: 84.8%
[8]
  viability, T/C: 86.6%
[9]
  viability, T/C: 85.6%
Second compound 0.316 µM, first compound 0.000316 µM
  viability, T/C: 97.9%
Second compound 0.316 µM, first compound 0.001 µM
  viability, T/C: 92.5%
[10]
  viability, T/C: 94.3%
[11]
  viability, T/C: 90.6%
[12]
  viability, T/C: 85.6%
[13]
  viability, T/C: 86.5%
Second compound 1 µM, first compound 0.000316 µM
  viability, T/C: 104%
Second compound 1 µM, first compound 0.001 µM
  viability, T/C: 113%
[14]
  viability, T/C: 104%
[15]
  viability, T/C: 101%
[16]
  viability, T/C: 103%
[17]
  viability, T/C: 94%
Second compound 3.16 µM, first compound 0.000316 µM
  viability, T/C: 122%
Second compound 3.16 µM, first compound 0.001 µM
  viability, T/C: 99.5%
[18]
  viability, T/C: 104%
[19]
  viability, T/C: 93.7%
[20]
  viability, T/C: 100%
[21]
  viability, T/C: 98.2%
Second compound 10 µM, first compound 0.000316 µM
  viability, T/C: 52.4%
Second compound 10 µM, first compound 0.001 µM
  viability, T/C: 55.5%
[22]
  viability, T/C: 62%
[23]
  viability, T/C: 56%
[24]
  viability, T/C: 47.5%
[25]
  viability, T/C: 58.3%

## COc1cc(Nc2ncc3c(n2)-c2ccc(Cl)cc2C(c2c(F)cccc2OC)=NC3)ccc1C(=O)O
Compound 0.0316 µM
  viability, T/C: 93.1% and 93.5% and 98%
Compound 0.1 µM
  viability, T/C: 73% and 85% and 75.2%
Compound 0.316 µM
  viability, T/C: 75.1% and 70.2% and 68.6%
Compound 1 µM
  viability, T/C: 71.5% and 66.9% and 67.2%
Compound 3.16 µM
  viability, T/C: 66.2% and 68.2% and 70.6%
Compound 10 µM
  viability, T/C: 60.7% and 64.3% and 65.4%
Curve of compound
  IC50: > 10000 nM

## CC1COCCN1c1cc(-c2ccnn2C)c2ccnc(-c3ccn[nH]3)c2n1 (configuration not stated) + CC(CO)NC(=O)c1cc(-c2ccc(Cl)cc2)nn(-c2cnn(C)c2)c1=O
[1]
  IC50: 162 nM
[2]
  IC50: 134 nM
[3]
  IC50: 168 nM
[4]
  IC50: 100 nM
[5]
  IC50: 53.6 nM
[6]
  viability, T/C: 102%
[7]
  viability, T/C: 101%
[8]
  viability, T/C: 94%
[9]
  viability, T/C: 60.2%
Second compound 0.1 µM, first compound 0.316 µM
  viability, T/C: 36.4%
Second compound 0.1 µM, first compound 1 µM
  viability, T/C: 28.4%
[10]
  viability, T/C: 103%
[11]
  viability, T/C: 103%
[12]
  viability, T/C: 76.1%
[13]
  viability, T/C: 56.5%
Second compound 0.316 µM, first compound 0.316 µM
  viability, T/C: 36.3%
Second compound 0.316 µM, first compound 1 µM
  viability, T/C: 27.9%
[14]
  viability, T/C: 97.3%
[15]
  viability, T/C: 105%
[16]
  viability, T/C: 80.6%
[17]
  viability, T/C: 60.1%
Second compound 1 µM, first compound 0.316 µM
  viability, T/C: 39.5%
Second compound 1 µM, first compound 1 µM
  viability, T/C: 30.4%
[18]
  viability, T/C: 94%
[19]
  viability, T/C: 97.7%
[20]
  viability, T/C: 89.9%
[21]
  viability, T/C: 49.9%
Second compound 3.16 µM, first compound 0.316 µM
  viability, T/C: 35.6%
Second compound 3.16 µM, first compound 1 µM
  viability, T/C: 32.9%
[22]
  viability, T/C: 92.3%
[23]
  viability, T/C: 86.4%
[24]
  viability, T/C: 57%
[25]
  viability, T/C: 41.5%
Second compound 10 µM, first compound 0.316 µM
  viability, T/C: 30.7%
Second compound 10 µM, first compound 1 µM
  viability, T/C: 29.2%
